Assay results: EP4678638A1, “NEW E3 UBIQUITIN LIGASE LIGAND, PROTEIN DEGRADATION AGENT AND USE THEREOF” (priority 2023, dated 2024)

Assays:
[1] = molecular target: T1, human Cereblon WT GST-tagged protein (Homo sapiens, UniProt Q96SW2); assay: CRBN binding, HTRF (CEREBLON BINDING kit); conditions: Table II-2, CRBN binding screening, HTRF
T1 construct: purchased CISBIO 64BDCRBNPEH
Outline: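 After 3 h at room temperature, emission at 665 and 620 nm was measured in a homogeneous time-resolved fluorescence format. Compounds competed with a Thalidomide-Re probe for GST-tagged wild-type human CRBN, which was labelled with a Eu anti-GST antibody.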

IRAK4 = molecular target: T2, IRAK4 (Homo sapiens, UniProt Q9NWZ3); assay: Western blot degradation of IRAK4 (hPBMC); assay type: cell-based; conditions: Table D1
T2 construct: evaluate the effects of the compounds of the present disclosure on the expression of target proteins in cells; endogenous in cells; host or cells: hPBMC
T2 sequence (Q9NWZ3 1-460): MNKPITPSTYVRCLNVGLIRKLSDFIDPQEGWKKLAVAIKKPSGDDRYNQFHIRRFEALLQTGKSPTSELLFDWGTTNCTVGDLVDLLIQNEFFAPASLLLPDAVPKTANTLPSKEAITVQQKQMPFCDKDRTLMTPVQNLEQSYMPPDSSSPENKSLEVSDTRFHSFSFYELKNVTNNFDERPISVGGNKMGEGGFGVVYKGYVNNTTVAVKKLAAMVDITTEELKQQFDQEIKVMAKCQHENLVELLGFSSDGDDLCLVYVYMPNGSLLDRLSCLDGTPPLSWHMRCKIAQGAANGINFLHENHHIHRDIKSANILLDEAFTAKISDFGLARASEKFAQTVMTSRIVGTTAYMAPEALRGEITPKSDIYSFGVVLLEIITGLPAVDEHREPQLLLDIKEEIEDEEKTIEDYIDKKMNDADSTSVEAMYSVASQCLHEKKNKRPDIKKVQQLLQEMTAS
Procedure: Conventional Western blot assay was performed to evaluate the effects of the compounds of the present disclosure on the expression of target proteins in cells.
(1) Cell Seeding and Protein Harvesting: The selected cells were processed according to the cell seeding procedure and protein harvesting procedure in Table III-2. Table III-2 Cell Seeding and Protein Harvesting Procedures
(2) To the collected supernatant, 5X SDS sample loading buffer was added, followed by denaturation at 95°C for 5 minutes. The denatured samples were then separated by SDS-PAGE electrophoresis on a polyacrylamide gel. Proteins were transferred to a nitrocellulose membrane (0.45 µm NC membrane), blocked with blocking buffer at room temperature for 1 hour, and subjected to antibody incubation and development procedures according to the antibody manufacturer's instructions (Cell Signaling Technology).
Half-Maximal Degradation Concentration value (the drug concentration required for degrading proteins by 50%, abbreviated as DC50) reads method: comparing the grayscale values of Western blot bands from drug-treated samples with those from blank DMSO-treated controls, and identifying the drug concentration range at which the grayscale value is half that of the DMSO-treated control bands.
DC50 values can be calculated using ImageJ software to measure grayscale values of Western blot bands from drug-treated samples. The concentration-response curve is fitted to estimate the drug concentration corresponding to half the grayscale value.
Target protein remaining (%) refers to the percentage of target protein remaining in hPBMC cells after treatment with protein degrader compounds.
Calculation method for target protein remaining (%): Use ImageJ software to measure grayscale values of Western blot bands from drug (protein degrader)-treated samples. The grayscale value of drug-treated bands is divided by that of internal control protein bands, and the resulting quotient is normalized to obtain the relative percentage of remaining target protein after protein degrader treatment.
Target protein degradation rate (%) = 100% - target protein remaining (%).

T1 sequence (Q96SW2 whole entry): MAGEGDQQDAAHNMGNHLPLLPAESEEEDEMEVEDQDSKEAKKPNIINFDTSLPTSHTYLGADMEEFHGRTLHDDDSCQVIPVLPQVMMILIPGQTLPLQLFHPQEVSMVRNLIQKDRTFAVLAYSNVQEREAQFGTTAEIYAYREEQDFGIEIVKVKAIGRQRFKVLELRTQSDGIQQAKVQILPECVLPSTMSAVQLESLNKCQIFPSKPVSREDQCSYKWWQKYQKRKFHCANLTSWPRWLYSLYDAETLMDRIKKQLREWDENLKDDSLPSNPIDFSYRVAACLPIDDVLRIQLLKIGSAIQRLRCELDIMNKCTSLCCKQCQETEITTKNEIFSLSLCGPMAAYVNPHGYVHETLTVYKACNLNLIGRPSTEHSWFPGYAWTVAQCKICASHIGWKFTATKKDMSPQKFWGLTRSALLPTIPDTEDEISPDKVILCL

| SMILES | Degradation of substrate protein IRAK4 (substrate protein remaining %) (IRAK4) | other results |
| --- | --- | --- |
| CC(C)(O)c1cc2nc(C3CCN(Cc4ccc(C5CCC(=O)NC5=O)cn4)CC3)sc2cc1NC(=O)c1cccc(C(F)(F)F)n1 (centres unmarked) [GT-07623, N-(2-(1-((5-(2,6-dioxopiperidin-3-yl)pyridin-2-yl)methyl)piperidin-4-yl)-5-(2-hydroxypropan-2-yl)benzo[d]thiazol-6-yl)-6-(trifluoromethyl)picolinamide] | A (A is defined as 0% ≤ substrate protein remaining % ≤ 80%) | Inhibition rate (%) at 0.5µM ([1]; at 0.5µM): a2 (20% < a2 ≤ 30%); Inhibition rate (%) at 2 µM ([1]; at 2 µM): a6 (60% < a6 ≤ 80%) |
| CC(C)(O)c1cc2nc(C3CCN(Cc4ccc(C5CCC(=O)NC5=O)cn4)CC3)oc2cc1NC(=O)c1cccc(C(F)(F)F)n1 (centres unmarked) [GT-07763, N-(2-(1-((5-(2,6-dioxopiperidin-3-yl)pyridin-2-yl)methyl)piperidin-4-yl)-5-(2-hydroxypropan-2-yl)benzo[d]oxazol-6-yl)-6-(trifluoromethyl)picolinamide] | A (A is defined as 0% ≤ substrate protein remaining % ≤ 80%) | inhibition at 0.5 µM ([1]; at 0.5µM, read-out: Inhibition rate (%) at 0.5µM): 40 to 53%; inhibition at 2 µM ([1]; at 2 µM, read-out: Inhibition rate (%) at 2 µM): 60 to 80% |
| CC(C)(O)c1cc2nc(C3CCN(Cc4ccnc(N5CCC(=O)NC5=O)c4)CC3)sc2cc1NC(=O)c1cccc(C(F)(F)F)n1 [GT-07619, N-(2-(1-((2-(2,4-dioxotetrahydropyrimidin-1(2H)-yl)pyridin-4-yl)methyl)piperidin-4-yl)-5-(2-hydroxypropan-2-yl)benzo[d]thiazol-6-yl)-6-(trifluoromethyl)picolinamide] | A (A is defined as 0% ≤ substrate protein remaining % ≤ 80%) |  |
| COc1cc2nn(C3CCN(Cc4cccc(NC5CCC(=O)NC5=O)c4)CC3)cc2cc1NC(=O)c1cccc(C(F)(F)F)c1 (centres unmarked) [GT-04749, N-(2-(1-(3-((2,6-dioxopiperidin-3-yl)amino)benzyl)piperidin-4-yl)-6-methoxy-2H-indazol-5-yl)-3-(trifluoromethyl)benzamide] | A (A is defined as 0% ≤ substrate protein remaining % ≤ 80%) |  |
| CC(C)(O)c1cc2nc(C3CCN(Cc4ccnc(N5CCC(=O)NC5=O)c4)CC3)oc2cc1NC(=O)c1cccc(C(F)(F)F)n1 [GT-07627, N-(2-(1-((2-(2,4-dioxotetrahydropyrimidin-1(2H)-yl)pyridin-4-yl)methyl)piperidin-4-yl)-5-(2-hydroxypropan-2-yl)benzo[d]oxazol-6-yl)-6-(trifluoromethyl)picolinamide] | A (A is defined as 0% ≤ substrate protein remaining % ≤ 80%) |  |
| CC(C)Nc1cc(-n2ccc3cc(C#N)cnc32)ncc1C(=O)NC1CCN(Cc2cncc(N3CCC(=O)NC3=O)c2)CC1 [GT-07410, 6-(5-cyano-1H-pyrrolo[2,3-b]pyridin-1-yl)-N-(1-((5-(2,4-dioxotetrahydropyrimidin-1(2H)-yl)pyridin-3-yl)methyl)piperidin-4-yl)-4-(isopropylamino)nicotinamide] | A (A is defined as 0% ≤ substrate protein remaining % ≤ 80%) |  |
| COc1cc2nn(C3CCN(Cc4ccnc(C5CCC(=O)NC5=O)c4)CC3)cc2cc1NC(=O)c1cccc(C(F)(F)F)c1 (centres unmarked) [GT-07418, N-(2-(1-((2-(2,6-dioxopiperidin-3-yl)pyridin-4-yl)methyl)piperidin-4-yl)-6-methoxy-2H-indazol-5-yl)-3-(trifluoromethyl)benzamide] | A (A is defined as 0% ≤ substrate protein remaining % ≤ 80%) |  |
| CC(C)Nc1cc(-n2ccc3cc(C#N)cnc32)ncc1C(=O)NC1CCN(Cc2cccnc2C2CCC(=O)NC2=O)CC1 (centres unmarked) [GT-07546, 6-(5-cyano-1H-pyrrolo[2,3-b]pyridin-1-yl)-N-(1-((2-(2,6-dioxopiperidin-3-yl)pyridin-3-yl)methyl)piperidin-4-yl)-4-(isopropylamino)nicotinamide] | A (A is defined as 0% ≤ substrate protein remaining % ≤ 80%) |  |
| O=C1CCC(Nc2cccc(CN3CCN(c4ccc5c(c4)nc(NC(=O)c4cccc(C(F)(F)F)c4)n5[C@H]4CC[C@@H](CO)CC4)CC3)c2)C(=O)N1 (some centres unmarked) [GT-04985, N-(5-(4-(3-((2,6-dioxopiperidin-3-yl)amino)benzyl)piperazin-1-yl)-1-((1s,4s)-4-(hydroxymethyl)cyclohexyl) -1H-benzo[d]imidazol-2-yl)-3-(trifluoromethyl)benzamide] | A (A is defined as 0% ≤ substrate protein remaining % ≤ 80%) |  |
| O=C1CCN(c2cccc(CN3CCC(n4cc(NC(=O)c5coc(-c6ccnc(NCC(F)(F)F)c6)n5)c(C(F)F)n4)CC3)c2)C(=O)N1 [GT-05190, N-(3-(difluoromethyl)-1-(1-(3-(2,4-dioxotetrahydropyrimidin-1(2H)-yl)benzyl)piperidin-4-yl)-1H-pyrazol-4-yl)-2-(2-((2,2,2-trifluoroethyl)amino)pyridin-4-yl)oxazole-4-carboxamide] | A (A is defined as 0% ≤ substrate protein remaining % ≤ 80%) |  |
| COc1cc2nn(C3CCN(Cc4ccnc(N5CCC(=O)NC5=O)c4)CC3)cc2cc1NC(=O)c1cccc(C(F)(F)F)c1 [GT-07415, N-(2-(1-((2-(2,4-dioxotetrahydropyrimidin-1(2H)-yl)pyridin-4-yl)methyl)piperidin-4-yl)-6-methoxy-2H-indazol-5-yl)-3-(trifluoromethyl)benzamide] | A (A is defined as 0% ≤ substrate protein remaining % ≤ 80%) |  |
| CC(C)Nc1cc(-n2ccc3cc(C#N)cnc32)ncc1C(=O)NC1CCN(Cc2ccnc(C3CCC(=O)NC3=O)c2)CC1 (centres unmarked) [GT-07412, 6-(5-cyano-1H-pyrrolo[2,3-b]pyridin-1-yl)-N-(1-((2-(2,6-dioxopiperidin-3-yl)pyridin-4-yl)methyl)piperidin-4-yl)-4-(isopropylamino)nicotinamide] | A (A is defined as 0% ≤ substrate protein remaining % ≤ 80%) |  |
| CC(C)Nc1cc(-n2ccc3cc(C#N)cnc32)ncc1C(=O)NC1CCN(Cc2cc(N3CCC(=O)NC3=O)ncc2F)CC1 [GT-07408, 6-(5-cyano-1H-pyrrolo[2,3-b]pyridin-1-yl)-N-(1-((2-(2,4-dioxotetrahydropyrimidin-1(2H)-yl)-5-fluoropyridin-4-yl)methyl)piperidin-4-yl)-4-(isopropylamino)nicotinamide] | A (A is defined as 0% ≤ substrate protein remaining % ≤ 80%) |  |
| CC(C)(O)c1cc2nc(C3CCN(Cc4ccc(C5CCC(=O)NC5=O)cc4)CC3)oc2cc1NC(=O)c1cccc(C(F)(F)F)n1 (centres unmarked) [GT-05771, N-(2-(1-(4-(2,6-dioxopiperidin-3-yl)benzyl)piperidin-4-yl)-5-(2-hydroxypropan-2-yl)benzo[d]oxazol-6-yl)-6-(trifluoromethyl)picolinamide] | A (A is defined as 0% ≤ substrate protein remaining % ≤ 80%) |  |
| COc1cc2nn(C3CCN(Cc4ccc(N5CCC(=O)NC5=O)cc4F)CC3)cc2cc1NC(=O)c1cccc(C(F)(F)F)c1 [GT-04753, N-(2-(1-(4-(2,4-dioxotetrahydropyrimidin-1(2H)-yl)-2-fluorobenzyl)piperidin-4-yl)-6-methoxy-2H-indazol-5-yl)-3-(trifluoromethyl)benzamide] | A (A is defined as 0% ≤ substrate protein remaining % ≤ 80%) |  |
| O=C1CCN(c2ccc(CN3CCC(n4cc(NC(=O)c5cnn6ccc(N7C[C@H]8C[C@@H]7CO8)nc56)c(C(F)F)n4)CC3)cn2)C(=O)N1 [GT-05054, 5-((1R,4R)-2-oxa-5-azabicyclo[2.2.1]heptan-5-yl)-N-(3-(difluoromethyl)-1-(1-((6-(2,4-dioxotetrahydropyrimidin-1(2H)-yl)pyridin-3-yl)methyl)piperidin-4-yl)-1H-pyrazol-4-yl)pyrazolo[1,5-a]pyrimidine-3-carboxamide] | A (A is defined as 0% ≤ substrate protein remaining % ≤ 80%) |  |
